Earlier results as cited in US7994139B2, “Antiviral therapeutic agents” (BioCryst Pharmaceuticals, Inc., priority 2008, dated 2011).

Test system: HCV

## NC(=O)c1ncn([C@@H]2O[C@H](CO)[C@@H](O)[C@H]2O)n1 [Ribavirin, 1-β-D-ribofuranosyl-1-1,2,4-triazole-3-carboxamide]
patients, used as sole treatment
  serum levels of HCV-RNA: does not lower serum levels of HCV-RNA
Ribavirin alone
  patients in whom serum amino transferase levels are reduced to normal: 40%
